Data published in ChEMBL document CHEMBL1129005 (Bioorg Med Chem Lett, 1996).

What was measured:
[1] = biological target: T1, Muscarinic acetylcholine receptor M2 (Homo sapiens, UniProt P08172); test: Compound was evaluated for displacement of [3H]-QNB from human Muscarinic m2 receptor in CHO cells.; type: cell-based
T1 sequence (P08172 whole entry): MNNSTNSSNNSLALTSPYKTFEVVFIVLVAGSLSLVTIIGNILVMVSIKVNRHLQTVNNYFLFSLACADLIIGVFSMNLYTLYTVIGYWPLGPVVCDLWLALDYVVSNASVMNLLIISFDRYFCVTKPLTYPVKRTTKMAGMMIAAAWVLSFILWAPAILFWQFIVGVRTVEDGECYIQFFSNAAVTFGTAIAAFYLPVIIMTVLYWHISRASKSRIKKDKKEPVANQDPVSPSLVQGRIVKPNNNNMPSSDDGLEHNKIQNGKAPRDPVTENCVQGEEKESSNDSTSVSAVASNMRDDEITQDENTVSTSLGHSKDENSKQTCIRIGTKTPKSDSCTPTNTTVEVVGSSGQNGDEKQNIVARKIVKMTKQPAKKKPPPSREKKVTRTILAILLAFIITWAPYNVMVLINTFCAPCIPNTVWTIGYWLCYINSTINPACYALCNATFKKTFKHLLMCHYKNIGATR

[2] = biological target: T2, Muscarinic acetylcholine receptor M1 (Homo sapiens, UniProt P11229); test: Compound was evaluated for displacement of [3H]QNB from human Muscarinic m1 receptor in CHO cells.; type: cell-based
T2 sequence (P11229 whole entry): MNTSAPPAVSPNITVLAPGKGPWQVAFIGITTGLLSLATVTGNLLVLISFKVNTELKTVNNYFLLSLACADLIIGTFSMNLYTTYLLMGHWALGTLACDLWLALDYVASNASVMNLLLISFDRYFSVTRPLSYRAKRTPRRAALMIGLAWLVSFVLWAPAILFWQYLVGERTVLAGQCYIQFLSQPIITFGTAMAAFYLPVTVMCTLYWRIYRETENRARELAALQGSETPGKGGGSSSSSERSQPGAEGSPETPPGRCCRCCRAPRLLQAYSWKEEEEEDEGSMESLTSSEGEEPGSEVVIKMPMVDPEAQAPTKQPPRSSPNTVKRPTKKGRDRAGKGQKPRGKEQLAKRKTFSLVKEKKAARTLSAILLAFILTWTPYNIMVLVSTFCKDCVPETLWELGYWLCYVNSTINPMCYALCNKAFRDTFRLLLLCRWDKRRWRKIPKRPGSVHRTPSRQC

Row | Structure (SMILES) | Ki [1] | Ki [2]
1 | CCCN(CCC)CC1CCCCN1CCNC(=O)N1c2ccccc2C(=O)Nc2cccnc21 (stereo unspecified) | 5.28 nM | 12.4 nM
2 | CC1CCN(CC(=O)N2c3ccccc3C(=O)Nc3cccnc32)CC1 | 71.2 nM | 82.4 nM
3 | CCN(CC)CC1CCCCN1CC(=O)N1c2ccccc2C(=O)Nc2cccnc21 (stereo unspecified) [OTENZEPAD] | 52 nM | 179 nM
